# Results: patent publication US12371454B2, “Cyclic peptide compound having Kras inhibitory action” (priority 2019, dated 2025)
# Starred links: 1 amine or outer side, 2 acyl side, 3 side chain; linkers in the order of their positions; H or OH if unused. Positions of bridges follow the written chain, without caps; N, C: chain ends. Non-standard residues stand in square brackets, D forms with d. Residues, ends and D or L forms follow the SMILES beside them. *: point of attachment. hPhe(3,5-F2-4-CF3) = N[C@@H](CCc1cc(F)c(C(F)(F)F)c(F)c1)C(=O)O; hPhe(3-Cl-4-CF3) = N[C@@H](CCc1ccc(C(F)(F)F)c(Cl)c1)C(=O)O; ACHC(1R,2R) = O=C([C@@H]1CCCC[C@H]1N[*:1])[*:2]; NMePhe(4-CN) = CN[C@@H](Cc1ccc(C#N)cc1)C(=O)O; NEtPhe(4-Me) = CCN[C@@H](Cc1ccc(C)cc1)C(=O)O; NMePhe(4-Me) = CN[C@@H](Cc1ccc(C)cc1)C(=O)O; hPhe(4-Cl) = N[C@@H](CCc1ccc(Cl)cc1)C(=O)O; NMeGly(cPent) = CN[C@H](C(=O)O)C1CCCC1; NMe3Pal = CN[C@@H](Cc1cccnc1)C(=O)O; NMeCha = CN[C@@H](CC1CCCCC1)C(=O)O; NMeGly(cPr) = CN[C@H](C(=O)O)C1CC1; NMeI = CC[C@H](C)[C@H](NC)C(=O)O; NMeD = CN[C@@H](CC(=O)O)C(=O)O; NMeL = CN[C@@H](CC(C)C)C(=O)O; NMeV = CN[C@H](C(=O)O)C(C)C; d(β3hA) = C[C@@H](N)CC(=O)O; NMeA = CN[C@@H](C)C(=O)O; Piperidide = C1CCN(*)CC1; Ac5c = NC1(C(=O)O)CCCC1; Aze = O=C(O)[C@@H]1CCN1; Sar = CNCC(=O)O
# Molecular target: T1, Kras and SOS1 (biotin-tagged human Kras loaded with GDP, His-tagged human SOS1) (Homo sapiens, UniProt P01116, G12D)
# T1 construct: made in house; host or cells: E. coli (stated for Kras only)
# T1 sequence (P01116 1-188 isoform P01116-2 G12D): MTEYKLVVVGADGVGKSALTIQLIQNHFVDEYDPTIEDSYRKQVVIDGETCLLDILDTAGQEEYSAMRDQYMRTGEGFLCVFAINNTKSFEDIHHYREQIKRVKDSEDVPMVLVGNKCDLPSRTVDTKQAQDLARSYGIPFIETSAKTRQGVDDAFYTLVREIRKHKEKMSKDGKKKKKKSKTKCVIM
# Assay: Protein-protein interaction inhibition between Kras and SOS1 (KrasGl2D-SOS PPI) using AlphaScreen
# Type: binding
# Settings: AlphaScreen; biotin-tagged human Kras loaded with GDP, His-tagged human SOS1; read-out: KRAS G12D-SOS PPI IC50
# Method in brief: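 Donor beads (nickel) hold His-SOS1; acceptor beads (streptavidin) hold biotin-Kras bound to GDP. Signal measured at 520-620 nm following 680 nm excitation.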
row,SMILES,IC50
1,CC[C@H](C)[C@@H]1NC(=O)[C@H](CC(C)C)N(C)C(=O)C[C@@H](C(=O)N(C)C)N(C)C(=O)[C@H]([C@@H](C)CC)N(C)C(=O)[C@H](C)NC(=O)[C@H](Cc2cccnc2)N(C)C(=O)[C@H](CCc2ccc(C(F)(F)F)c(Cl)c2)NC(=O)CN(C)C(=O)[C@H](Cc2ccc(C)cc2)N(C)C(=O)[C@@H]2CCN2C(=O)[C@H](C)N(C)C1=O [Compound 557] ([NMeL]I[NMeA][Aze][NMePhe(4-Me)][Sar][hPhe(3-Cl-4-CF3)][NMe3Pal]A[NMeI][NMeD]-NMe2; lactam N-11),0.0044 µM
2,CC[C@H](C)[C@@H]1NC(=O)[C@H](CC(C)C)N(C)C(=O)C[C@@H](C)NC(=O)[C@H](C(C)C)N(C)C(=O)C2(CCCC2)NC(=O)[C@@H]2CCCN2C(=O)[C@H](CCc2ccc(C(F)(F)F)c(Cl)c2)NC(=O)CN(C)C(=O)[C@H](Cc2ccc(C#N)cc2)N(C)C(=O)CN(C)C(=O)CN(C)C1=O [Compound 564] (cyclo([Ac5c][NMeV][d(β3hA)][NMeL]I[Sar][Sar][NMePhe(4-CN)][Sar][hPhe(3-Cl-4-CF3)]P)),0.0096 µM
3,CC[C@H](C)[C@@H]1NC(=O)[C@H](C2CC2)N(C)C(=O)C[C@@H](C)NC(=O)[C@H](C(C)C)N(C)C(=O)C2(CCCC2)NC(=O)[C@@H]2CCCN2C(=O)[C@H](CCc2ccc(C(F)(F)F)c(Cl)c2)NC(=O)CN(C)C(=O)[C@H](CC2CCCCC2)N(C)C(=O)[C@@H]2CCN2C(=O)[C@H](C)N(C)C1=O [Compound 565] (cyclo([Ac5c][NMeV][d(β3hA)][NMeGly(cPr)]I[NMeA][Aze][NMeCha][Sar][hPhe(3-Cl-4-CF3)]P)),0.055 µM
4,"CC[C@H](C)[C@@H]1NC(=O)[C@H](CC(C)C)NC(=O)[C@@H]2CCCC[C@H]2NC(=O)[C@H](C(C)C)N(C)C(=O)C2(CCCC2)NC(=O)[C@@H]2CCCN2C(=O)[C@H](CCc2ccc(C(F)(F)F)c(Cl)c2)NC(=O)CN(C)C(=O)[C@H](CC2CCCCC2)N(C)C(=O)CN(C)C(=O)CN(C)C1=O [Compound 569] (cyclo([Ac5c][NMeV][ACHC(1R,2R)]LI[Sar][Sar][NMeCha][Sar][hPhe(3-Cl-4-CF3)]P))",0.073 µM
5,CC[C@H](C)[C@@H]1NC(=O)[C@H](C2CCCC2)N(C)C(=O)C[C@@H](C)NC(=O)[C@H](C(C)C)N(C)C(=O)C2(CCCC2)NC(=O)[C@@H]2CCCN2C(=O)[C@H](CCc2ccc(C(F)(F)F)c(Cl)c2)NC(=O)CN(C)C(=O)[C@H](CC2CCCCC2)N(C)C(=O)[C@@H]2CCN2C(=O)[C@H](C)N(C)C1=O [Compound 570] (cyclo([Ac5c][NMeV][d(β3hA)][NMeGly(cPent)]I[NMeA][Aze][NMeCha][Sar][hPhe(3-Cl-4-CF3)]P)),0.027 µM
6,"CC[C@H](C)[C@@H]1NC(=O)[C@H](CC(C)C)N(C)C(=O)C[C@@H](C(=O)N(C)C)N(C)C(=O)[C@H]([C@@H](C)CC)N(C)C(=O)C2(CCCC2)NC(=O)[C@@H]2CCCN2C(=O)[C@H](CCc2cc(F)c(C(F)(F)F)c(F)c2)NC(=O)CN(C)C(=O)[C@H](Cc2ccc(C)cc2)N(CC)C(=O)[C@@H]2CCN2C(=O)[C@H](C)N(C)C1=O [Compound 571] ([NMeL]I[NMeA][Aze][NEtPhe(4-Me)][Sar][hPhe(3,5-F2-4-CF3)]P[Ac5c][NMeI][NMeD]-NMe2; lactam N-11)",0.00083 µM
7,CC[C@H](C)[C@@H]1NC(=O)[C@H](CC(C)C)N(C)C(=O)C[C@@H](C)NC(=O)[C@H](C(C)C)N(C)C(=O)C2(CCCC2)NC(=O)[C@@H]2CCCN2C(=O)[C@H](CCc2ccc(Cl)cc2)NC(=O)CN(C)C(=O)[C@H](CC2CCCCC2)N(C)C(=O)CN(C)C(=O)CN(C)C1=O [Compound 576] (cyclo([Ac5c][NMeV][d(β3hA)][NMeL]I[Sar][Sar][NMeCha][Sar][hPhe(4-Cl)]P)),0.23 µM
8,CC[C@H](C)[C@@H]1NC(=O)[C@H](CC(C)C)N(C)C(=O)C[C@@H](C(=O)N2CCCCC2)N(C)C(=O)[C@H](CC2CCCCC2)N(C)C(=O)C2(CCCC2)NC(=O)[C@@H]2CCCN2C(=O)[C@H](CCc2ccc(C(F)(F)F)c(Cl)c2)NC(=O)CN(C)C(=O)[C@H](CC2CCCCC2)N(C)C(=O)CN(C)C(=O)CN(C)C1=O [Compound 577] ([NMeL]I[Sar][Sar][NMeCha][Sar][hPhe(3-Cl-4-CF3)]P[Ac5c][NMeCha][NMeD]-Piperidide; lactam N-11),0.021 µM
